Data set [1] is described as follows: Functional stability of DPPIV inhibitors in the reaction medium (buffer). Format: physicochemical. The note with it: 50 mM TRIS buffer pH 8.3, 37° C. As for the experimental part:
(§1) To determine the functional stability of the inhibitors in the reaction medium, a 10 mM stock solution in DMSO was diluted 50-fold in 50 mM TRIS buffer pH 8.3 and incubated at 37° C. To determine the functional stability in plasma, a 50 mM stock solution in DMSO was diluted 50-fold in fresh or freshly frozen citrated plasma from a healthy donor and incubated at 37° C. At specific time intervals an aliquot was withdrawn, added to an equal volume of DPPIV diluted in buffer or to an equal volume of plasma and the kinetics of inactivation were determined as described under b). The reduction in observed pseudo-first order rate constant is a measure for the amount of functional inhibitor lost during the incubation and allowed to estimate the half-life of the inhibitors in buffer and plasma. The following table lists the results.

Data set [2] can be described thus: Functional stability of DPPIV inhibitors in human citrated plasma. Format: in vitro ADME. The note with it: 37° C. As for the experimental part:
as §1

Data set [3] is described as follows: In vivo testing in rabbits, single intravenous injection. As for the experimental part:
In order to test the effect of the inhibitors in vivo rabbits were injected with the inhibitor and their DPPIV activity was tested using Gly-Pro-4-Methoxy-2-naphthylamide as the substrate.
4 Rabbits received a single 5 ml intravenous-(ear vein) injection of physiological saline cobtaining 0 (control), 1 mg, 5 mg and 10 mg AB 3, respectively. Blood samples were taken from the central ear artery 5 min before injection and at different points of time, directly after the injection, after 4 hrs and after 1, 2, 3, 6 and 13 days.
Counts of white and red blood cells and platelets, serum DPPIV activity and serum bilirubin, GOT, GPT, GT, LDH, creatinine, Na, K, CK and urea were evaluated.

`Cl.O=C([C@@H]1CCCN1)N1CCCC1P(=O)(Oc1ccccc1)Oc1ccccc1` (stereo partly drawn) [Pro-Pro^P -(OPh)2, Diphenyl (S,R)-1-[(S)-prolyl]pyrrolidine-2-phophonate hydrochloride] came in with a t1/2 in buffer in data set [1] of 3.5 ± 0.1 h. This compound yielded a t1/2 in plasma in data set [2] of 4.1 ± 0.3 h. In data set [3] (rabbit receiving 10 mg i.v.), the “death of the animal” value was “died after 11 days”. Besides, the “biochemical and hematological parameters” value in data set [3] (rabbit receiving 10 mg i.v., at day 6) is “normal”. The “cell counts (white and red blood cells, platelets) and serum biochemical parameters” value in data set [3] (rabbits, single i.v. injection of 1 mg, 5 mg or 10 mg, up to 13 days, DPPIV enzyme activity excepted) is recorded as “No differences”.

Source of the values: US6090786A, “Serine proteases, their activity and their synthetic inhibitors” (priority 1994, dated 2000).
